Data taken from patent publication US12187727B2, “Methods for antagonizing a melanocortin 4 receptor” (Pfizer Inc., priority 2020, dated 2025).
Like-named read-outs stand apart in the source and are kept apart here.

Experiments:
[1] = molecular target: hMC4R (Homo sapiens (Human), UniProt P32245); assay: In vitro binding affinity assay using hMC4R (radioligand competition binding, [125I]-(Nle4, D-Phe7)-α-MSH); conditions: geometric mean
[2] = molecular target: human Melanocortin-4 receptor (MC4R) (Homo sapiens (Human), UniProt P32245); assay: Functional in vitro MC4R antagonist potency assay (cAMP HTRF in CHO cells); type: cell-based
human Melanocortin-4 receptor (MC4R), sequence (P32245 whole entry): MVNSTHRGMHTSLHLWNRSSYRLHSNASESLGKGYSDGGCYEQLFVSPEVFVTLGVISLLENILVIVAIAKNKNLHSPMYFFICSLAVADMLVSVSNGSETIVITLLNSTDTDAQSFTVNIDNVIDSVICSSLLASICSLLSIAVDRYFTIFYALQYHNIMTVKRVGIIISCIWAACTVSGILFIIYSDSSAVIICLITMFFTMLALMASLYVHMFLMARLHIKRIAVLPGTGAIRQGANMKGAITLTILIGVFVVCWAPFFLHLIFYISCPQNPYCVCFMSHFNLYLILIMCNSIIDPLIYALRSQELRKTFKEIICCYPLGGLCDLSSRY
Outline: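 CHO cells stably expressing human MC4R were preincubated 30 min at 37 °C with compound ([…], 0.1% DMSO), then stimulated 30 min with EC80 αMSH (200 nM). Intracellular cAMP quantified by HTRF competitive immunoassay and normalized to agonist-stimulated and vehicle-only wells.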

[3] = read-out: Ki (nM) geometric mean
[4] = read-out: Kb (nM) Antagonist geometric mean
[5] = human MC4R in CHO cells, cAMP HTRF, 200 nM aMSH challenge, Kb from IC50 by Leff-Dougall equation, geometric mean, read-out: Kb (nM) Antagonist geometric

hMC4R, sequence (P32245 whole entry): as above

| Ki [1, 3] [nM] | Kb [2, 4] [nM] | Ki ([1]; read-out: Ki (nM) geometric) [nM] | Kb [2, 5] [nM] | SMILES |
| --- | --- | --- | --- | --- |
| 0.62 | 1.2 | – | – | Cc1nc2c(cc1-c1ncccn1)CC[C@@]1(CCN(C(=O)[C@H](C)c3cc(OC(F)F)ncc3F)C1)N2 (single isomer, unassigned) [Example 78] |
| 8 | 28 | – | – | Cc1nc2c(cc1-c1ncccn1)CC[C@@]1(CCN(C(=O)[C@H](C)c3cc(C(F)(F)F)ncc3F)C1)N2 (single isomer, unassigned) [Example 80] |
| 16 | 4.1 | – | – | COc1cc([C@@H](C)C(=O)N2CC[C@@]3(CCc4cc(-c5nc(C(F)(F)F)n(C)n5)c(C)nc4N3)C2)c(F)cn1 (single isomer, unassigned) [Example 93] |
| 86 | 7.5 | – | – | COc1cc([C@@H](C)C(=O)N2CC[C@@]3(CCc4cc(-c5nc(C(F)(F)F)n(C)n5)c(C)nc4N3)C2)c(Cl)cn1 (single isomer, unassigned) [Example 95] |
| 4.1 | 11 | – | – | COc1cc(OC)cc([C@@H](C)C(=O)N2CC[C@@]3(CCc4ccc(C)nc4N3)C2)c1 (single isomer, unassigned) [Example 96] |
| – | – | 54 | 16 | COc1cc([C@@H](C)C(=O)N2CC[C@@]3(CCc4cc(-c5cnn(C)c5)c(C)nc4N3)C2)c(Cl)cn1 (single isomer, unassigned) [Example 105] |
| – | – | 1.2 | 7.1 | Cc1nc2c(cc1-c1nnn(C)n1)CC[C@@]1(CCN(C(=O)[C@H](C)c3ccc(OC(F)F)nc3)C1)N2 (single isomer, unassigned) [Example 108] |
| – | – | 17 | 8 | COc1cc([C@@H](C)C(=O)N2CC[C@@]3(CCc4cc(-c5nc(OC)n(C)n5)c(C)nc4N3)C2)c(F)cn1 (single isomer, unassigned) [Example 113] |
| – | – | 0.48 | 0.25 | COc1cc([C@@H](C)C(=O)N2CCC3(CCc4cc(-c5nc(OC)n(C)n5)c(C)nc4N3)C2)c(Cl)cn1 (single isomer, unassigned) [Example 114] |
| – | – | 31 | 3.5 | COc1cc([C@@H](C)C(=O)N2CCC3(CCc4cc(-c5nc(OC)n(C)n5)c(C)nc4N3)C2)c(Cl)cn1 (single isomer, unassigned) [Example 115] |
| – | – | 6.7 | 0.81 | COc1cc([C@@H](C)C(=O)N2CC[C@@]3(CCc4cc(-c5nc(C(F)F)n(C)n5)c(C)nc4N3)C2)nc(C)n1 (single isomer, unassigned) [Example 124] |
| – | – | 10 | 3.8 | COc1cc([C@@H](C)C(=O)N2CC[C@@]3(CCc4cc(-c5nnn(C)n5)c(C)nc4N3)C2)nc(C(F)F)n1 (single isomer, unassigned) [Example 128] |
| – | – | 0.44 | 1.5 | COc1cc([C@@H](C)C(=O)N2CC[C@@]3(CCc4cc(-c5nc6ccccn6n5)c(C)nc4N3)C2)nc(C(F)F)n1 (single isomer, unassigned) [Example 129] |
| – | – | 5.9 | 9 | COc1cc([C@@H](C)C(=O)N2CC[C@@]3(CCc4cc(-c5nc6ccccn6n5)c(C)nc4N3)C2)nc(C(F)F)n1 (single isomer, unassigned) [Example 130] |
| – | – | 3.4 | 35 | COc1ncc(F)c([C@@H](C)C(=O)N2CC[C@@]3(CCc4cc(-c5nc6ccccn6n5)c(C)nc4N3)C2)n1 (single isomer, unassigned) [Example 132] |
| – | – | 3.8 | 10 | COc1ncc(F)c([C@@H](C)C(=O)N2CC[C@@]3(CCc4cc(-c5nnn(C)n5)c(C)nc4N3)C2)n1 (single isomer, unassigned) [Example 135] |
| – | – | 59 | 19 | COc1cc([C@@H](C)C(=O)N2CC[C@@]3(CCc4cc(-c5ncccn5)c(C)nc4N3)C2)c(C)cn1 (single isomer, unassigned) [Example 137] |
| – | – | 1.8 | 7.9 | COc1cc([C@](C)(F)C(=O)N2CC[C@@]3(CCc4cc(-c5ncccn5)c(C)nc4N3)C2)c(F)cn1 (single isomer, unassigned) [Example 149] |
| – | – | 230 | > 94 | Cc1nc2c(cc1-c1ncccn1)CC[C@@]1(CCN(C(=O)[C@H](C)c3ccc(F)cc3F)C1)N2 (single isomer, unassigned) [Example 191] |
| – | – | 1.2 | 3.5 | Cc1nc2c(cc1-c1ncccn1)CC[C@@]1(CCN(C(=O)[C@H](C)c3ccnc(OC(F)F)c3)C1)N2 (single isomer, unassigned) [Example 195] |
| – | – | 0.25 | 0.47 | COc1cc([C@@H](C)C(=O)N2CC[C@@]3(CCc4cc(-c5nc6ccccn6n5)c(C)nc4N3)C2)c(F)cn1 [Example 111, (2R)-2-(5-fluoro-2-methoxypyridin-4-yl)-1-[(2S)-7-methyl-6-([1,2,4]triazolo[1,5-a]pyridin-2-yl)-3,4-dihydro-1H-spiro[1,8-naphthyridine-2,3′-pyrrolidin]-1′-yl]propan-1-one] |
| – | – | 18 | 33 | COc1cc([C@@H](C)C(=O)N2CC[C@@]3(CCc4cc(-c5cncc(OC)n5)c(C)nc4N3)C2)c(F)cn1 [Example 197, (2R)-2-(5-fluoro-2-methoxypyridin-4-yl)-1-[(2S)-6-(6-methoxypyrazin-2-yl)-7-methyl-3,4-dihydro-1H-spiro[1,8-naphthyridine-2,3′-pyrrolidin]-1′-yl]propan-1-one] |

| SMILES | Ki [1, 3] [nM] | Kb [2, 4] [nM] | Ki ([1]; read-out: Ki (nM) geometric) [nM] | Kb [2, 5] [nM] |
| --- | --- | --- | --- | --- |
| COc1cc(CC(=O)N2CC[C@@]3(CCc4cc(-c5ncccn5)c(C)nc4N3)C2)c(F)cn1 [Example 106, 2-(5-fluoro-2-methoxypyridin-4-yl)-1-[(2S)-7-methyl-6-(pyrimidin-2-yl)-3,4-dihydro-1H-spiro[1,8-naphthyridine-2,3′-pyrrolidin]-1′-yl]ethan-1-one] | – | – | 3.5 | 6.3 |
